Assay results taken from paper PMC11167021, “Discovery of a new class of cell-penetrating peptides by novel phage display platform” (Scientific Reports, 2024).

Columns and labels:
[1] = tested on: HEK cells; assay: Internalization of peptides on phage by confocal microscopy; assay type: cell-based; details: peptide displayed on phage, compared with ORD 5 phage pools
Description: Confocal microscopy was used to investigate the internalization and cytoplasmic localization of the selected peptides on phage. First, we used the phage pool. […] Some of these peptides had been identified from the selection against all three cell lines and some were cell-type selective. […] Representative images showing different internalization levels of NNJA peptides on phage were shown in Supplementary Fig. S6. Confirmation of internalization for select peptides was obtained using the same approach in Caco2 cells (Supplementary Figs. S7, S8).
Cells were fixed with 4% paraformaldehyde (PFA) on ice for 20 min after the washing steps. Fixed cells were washed with PBS for three times to remove any excess PFA, and followed by 1 h blocking in 3% bovine serum albumin (BSA) in Tris buffer saline (TBS) with 0.2% triton X-100, and antibodies staining in TBS with 0.2% triton X-100. Primary antibodies were incubated with cell samples overnight at 4 °C. Following PBS washes, species-specific Alexa Fluor 488, Alexa Fluor 568, and/or Alexa Fluor 647-coupled secondary antibodies were used for signal detection. Imaging data collection was conducted on an LSM800 (Zeiss) confocal microscope, using a 40× (NA 1.1 W LD C-Apochromat, Zeiss) objective. Controls treated with secondary antibody were shown negative or undetectable signal.

[2] = tested on: HEK-239 cells; assay: Double-displayed phage carrying streptavidin-HRP, cellular uptake detected with TMB; assay type: cell-based; details: peptide displayed on phage PIII, streptavidin-HRP on pIX; n = 2
Procedure: (§1) We further evaluated the ability of NNJA peptides on phage to deliver functional groups into HEK-239 and CaCo2 cells by displaying an Avi-tag peptide on the minor coat protein pIX. Post biotinylation of Avi-tag by BirA, streptavidin-HRP was added to phage, forming a phage-protein complex (Avi[bio]/CPP-SA-HRP).
(§2) A randomly picked peptide ([…]) from the naïve library was incorporated in the setting and served as one of the negative controls. The method was described previously. Cell viability was evaluated in a replicated experimental group under the same assay condition using CellTiter-Glo luminescent cell viability assay from Promega.

[3] = tested on: Caco2 cells; details: peptide displayed on phage PIII, streptavidin-HRP on pIX; n = 2
Procedure: as §1, §2

Sequence	phage internalization in HEK cells, M13 antibody signal [1]	cellular uptake of phage-protein complex (Avi[bio]/CPP-SA-HRP), TMB signal, HEK-239 cells [2]	cellular uptake of phage-protein complex (Avi[bio]/CPP-SA-HRP), TMB signal, CaCo2 cells [3]
GRKKRRQRRRPQ [Tat48–60, classic CPP]	lower signal intensity	–	–
TVSRELTPL (phage displayed) [random peptide]	–	minimum signal	minimum signal
